Assay [1] concerns folate-resistant mouse neural tube defects. To be noted: compared with myo-inositol; cited from earlier work.
Assay [2] relates to cytidine monophosphorylphosphatidate. The settings on record: cited from earlier work.
Assay [3] relates to Tg SOD1 G37R mice. Put plainly: Foot print analyses of gait in ALS mouse model. In kind it is in vivo. The protocol:
(§1) FIG. 2. Motor function of TgSOD1 G37R mice treated or untreated with scyllo-inositol was evaluated using the Rotarod and footprint analyses of gait. […] Stride length 37±2 mm for treated and 18±2 mm for untreated mice (p<0.001). […] Mice were untreated (n=5) or treated with scyllo-inositol (n=5) in drinking water ad libitum from 6.5 months of age and are ongoing at 12 months. Starting at 7.5 months of age, mice underwent weekly evaluation of motor function using the Rotarod test. Mice were given three consecutive trials and the mean time to fall was calculated. […] At 12 months of age, two treated mice were still remaining on the rotarod for >50 sec; untreated mice lost this ability at 11 months of age. […] Scyllo-inositol treatment maintained gait with treated 37±2 versus 18±2 mm stride length in Tg mice (p<0.001).

In assay [4] the test system is Tg SOD1 G37R mice. Description: Rotarod test of motor function in ALS mouse model. In kind it is in vivo. The protocol: as §1
In general terms: Falling from the rotarod earlier than controls is read as motor impairment.

In another assay the target is apo-SOD1 G93S protein (Homo sapiens, UniProt P00441, G94S). Description: Trifluoroethanol-induced aggregation of apo-SOD1 G93S, thioflavin T signal. It is filed as biochemical. To be noted: SOD1:scyllo-inositol 1:20, as a function of time. From the text: FIG. 4. ApoSOD1 G93S mutant aggregation—Trifluoroethanol-induced aggregation of apo-SOD1 G93S protein in the presence and absence of scyllo-inositol as a function of time. […] Untreated (blue) and SOD1:scyllo-inositol ratio of 1:20(yellow).
Chain of apo-SOD1 G93S protein (P00441 whole entry G94S): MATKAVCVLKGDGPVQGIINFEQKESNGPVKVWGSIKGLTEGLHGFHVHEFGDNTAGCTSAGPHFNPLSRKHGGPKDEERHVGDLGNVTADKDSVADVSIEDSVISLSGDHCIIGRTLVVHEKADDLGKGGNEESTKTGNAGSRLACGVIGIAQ
(§2) Inositol related compounds were screened in aggregation assays of apo-SOD1 and the following SOD1 mutants, G93V and G93S. The G93V mutant was chosen for its fast aggregation kinetics, while the G93S is intermediary between G93V and the slow kinetics of apo-SOD1 (Stathopulos, P. B., et al. (2006) J. Biol. Chem. 281, 6184-6193). Using trifluoroethanol (TFE)-induced aggregation, all three SOD1 proteins aggregate maximally within a 2 hour window (Stathopulos P B, et al. (2003) Proc Natl Acad Soc USA. 100:7021-7026). […] The results were confirmed using a bis-ANS assay that determines the exposure of hydrophobic faces on proteins, as aggregation occurs dye binding to SOD1 should increase (Rakhit R, Cunningham P, et al (2002) J Biol. Chem. 277:47551-46556). In the presence of scyllo-inositol, the bis-ANS signal was lower than when protein was incubated alone.

Assay [5] concerns the target T1, SOD1 G93V protein (Homo sapiens, UniProt P00441, G94V). Description: Trifluoroethanol (TFE)-induced SOD1 aggregation, thioflavin T (ThT) fluorescence. It is filed as biochemical. To be noted: SOD1:scyllo-inositol ratio 1:1, 1:10, 1:20 vs untreated.
From the text: as §2, with “FIG. 1. Aggregation of SOD1 […] protein in the presence and absence of scyllo-inositol. […] Untreated (blue), SOD1:scyllo-inositol ratio of 1:1 (blue), 1:10 (pink) and 1:20(yellow). […] Inositol” for “Inositol”, “G93V” left out, “[…].” for “G93S.”, “G93S” left out, “([…],” for “(Rakhit R,”

Assay [6] has as its target T1, SOD1 G93V protein. Put plainly: bis-ANS assay (exposure of hydrophobic faces on SOD1). In kind it is biochemical. To be noted: in the presence of scyllo-inositol vs protein incubated alone.
From the text: as §2, with “FIG. 1. Aggregation of SOD1 […] protein in the presence and absence of scyllo-inositol. […] Untreated (blue), SOD1:scyllo-inositol ratio of 1:1 (blue), 1:10 (pink) and 1:20(yellow). […] Inositol” for “Inositol”, “G93V” left out, “[…].” for “G93S.”, “G93S” left out, “([…],” for “(Rakhit R,”

A further assay relates to SOD1G93A. Put plainly: Negative stain electron microscopy of SOD1 aggregates/fibres. In kind it is biochemical. The settings on record: vs control samples / SOD1 incubated alone.
Assay [7] addresses Apo-wild type SOD1 protein (Homo sapiens, UniProt P00441). Description: Trifluoroethanol-induced aggregation of Apo-wild type SOD1, thioflavin T signal. In kind it is biochemical. To be noted: SOD1:scyllo-inositol 1:20, 15 minute incubation. Here is the method: as §2, with “FIG. 3. ApoSOD aggregation-Trifluoroethanol-induced aggregation of Apo-wild type SOD1 protein in the presence and absence of scyllo-inositol after a 15 minute incubation. The thioflavin T signal increases in the presence of scyllo-inositol. Untreated (blue) and SOD1:scyllo-inositol ratio of 1:20(yellow). Inositol” for “Inositol”, “G93V” left out, “[…].” for “G93S.”, “G93S” left out, “([…],” for “(Rakhit R,”

A further assay deals with apoSOD1 and mutant SOD1. Description: Time course study of ThT signal (kinetics of assembly of SOD1 aggregates). It is filed as biochemical. To be noted: in the presence of scyllo-inositol. The protocol: as §2, with “G93V” left out, “[…].” for “G93S.”, “G93S” left out, “([…],” for “(Rakhit R,”

Molecules are shown by their SMILES. Entries after “also recorded” stand apart in the source; their conditions may differ.

T1 sequence (P00441 whole entry G94V): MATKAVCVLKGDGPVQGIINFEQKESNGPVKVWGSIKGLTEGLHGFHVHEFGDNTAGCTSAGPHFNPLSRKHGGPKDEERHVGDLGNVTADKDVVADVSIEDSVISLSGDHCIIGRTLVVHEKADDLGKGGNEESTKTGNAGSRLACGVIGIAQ
Chain of Apo-wild type SOD1 protein (P00441 whole entry): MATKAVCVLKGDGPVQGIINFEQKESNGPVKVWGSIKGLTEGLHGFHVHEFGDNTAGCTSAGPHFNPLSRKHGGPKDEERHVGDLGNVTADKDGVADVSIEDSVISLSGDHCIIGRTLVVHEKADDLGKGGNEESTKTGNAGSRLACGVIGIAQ

For `OC1C(O)C(O)C(O)C(O)C1O` [D-chiro-inositol], in assay [1], the “prevention of folate-resistant neural tube defects” value is “more effective than myo-inositol”.

Turning to `OC1C(O)C(O)C(O)C(O)C1O` (stereo not drawn) [Epi-inositol, epi-inositol], the “reversing lithium effects on cytidine monophosphorylphosphatidate” value in assay [2] is reported as “effective”.

`O[C@H]1[C@H](O)[C@@H](O)[C@H](O)[C@@H](O)[C@@H]1O` [scyllo-inositol] gave a stride length in the assay on Tg SOD1 G37R mice [3] (treated Tg SOD1 G37R mice, untreated 18±2 mm, p<0.001) of 37±2 mm. Besides, in the assay on Tg SOD1 G37R mice [3] (treated versus untreated Tg mice), the “gait (foot print analyses)” value was “maintained”. The onset of disease in the assay with Tg SOD1 G37R mice [4] (Tg SOD1 G37R mice, scyllo-inositol in drinking water ad libitum from 6.5 months of age, untreated 10.1±0.06) stood at 10.6±0.22 months. For the same compound, the “time remaining on the rotarod” value with Tg SOD1 G37R mice [4] (at 12 months of age, two treated mice, untreated mice lost this ability at 11 months) is greater than 50 s. The “motor function on the rotarod (latency to fall)” value in the assay with Tg SOD1 G37R mice [4] (treated vs untreated Tg SOD1 G37R mice, p=0.029) is “improvement; also recorded: significantly better”. For the same compound, the “Thioflavin T signal / trifluoroethanol-induced aggregation” value on apo-SOD1 G93S protein is listed as “increased; also recorded: increases in the presence of scyllo-inositol to a greater extent than in apo-SOD1 G93S protein alone”; in assay [7], “increases”. Also, the “Thioflavin T (ThT) fluorescence signal” value on SOD1 G93V protein [5] is “increased; also recorded: increases in a scyllo-inositol concentration dependent manner”. In addition, the bis-ANS signal entry at SOD1 G93V protein [6] is “lower; also recorded: decreases”. Further, in the assay on SOD1G93A, the “number of SOD1 aggregates/fibres (negative stain electron microscopy)” value is listed as “decreased; also recorded: no fibres were detected”. For the same compound, the “kinetics of assembly of SOD1 aggregates” value in the assay on apoSOD1 and mutant SOD1 is “greatly reduced; also recorded: most effective compound”.

The values are drawn from patent US20100144891A1, “USE OF CYCLOHEXANEHEXOL DERIVATIVES IN THE TREATMENT OF AMYOTROPHIC LATERAL SCLEROSIS” (priority 2007, published 2010).
